Data on 26 molecules can be found in patent US20170260178A1 (SPERO GYRASE, INC., priority 2012, published 2017).

≈ marks a conversion by molar mass, not a printed value.

In one assay the test system is S. aureus (ATCC 29213). The assay can be described thus: Bacterial assay: MIC against S. aureus. Type of assay: cell-based, Staphylococcus aureus. To be noted: Staphylococcus aureus, ATCC29213, read-out: minimal inhibitory concentration (MIC).
The test system of the next assay is S. pyogenes (ATCC 51339). The assay can be described thus: Bacterial assay: MIC against S. pyogenes. It is filed as cell-based, Streptococcus pyogenes. To be noted: Streptococcus pyogenes, ATCC51339, read-out: minimal inhibitory concentration (MIC).

Turning to `CCNC(=O)Nc1nc2cc(-c3cnc(C(C)(C)O)nc3)cc(-c3ccc(N4CCC(C)(C(=O)O)CC4)cn3)c2s1` [Compound 45, 1-[6-[2-(ethylcarbamoylamino)-5-[2-(1-hydroxy-1-methyl-ethyl)pyrimidin-5-yl]-1,3-benzothiazol-7-yl]-3-pyridyl]-4-methyl-piperidine-4-carboxylic acid], the MIC with S. aureus (ATCC 29213) was 2 µg/mL (≈ 3.47 µM); with S. pyogenes (ATCC 51339), not above 1 µg/mL.
Turning to `CCNC(=O)Nc1nc2cc(-c3cnc(C(C)(C)O)nc3)cc(-c3ccc(CC(=O)O)cn3)c2s1` [Compound 46, 2-[6-[2-(ethylcarbamoylamino)-5-[2-(1-hydroxy-1-methyl-ethyl)pyrimidin-5-yl]-1,3-benzothiazol-7-yl]-3-pyridyl]acetic acid], the MIC in the assay with S. aureus (ATCC 29213) and in the assay with S. pyogenes (ATCC 51339) was 4 µg/mL (≈ 8.12 µM) throughout.
As to `CCNC(=O)Nc1nc2cc(-c3cnc(C4(O)CCCCC4)nc3)cc(-c3ccccn3)c2s1` [Compound 47, 1-ethyl-3-[5-[2-(1-hydroxycyclohexyl)pyrimidin-5-yl]-7-(2-pyridyl)-1,3-benzothiazol-2-yl]urea], the MIC in the assay with S. aureus (ATCC 29213) and in the assay with S. pyogenes (ATCC 51339) was 8 µg/mL (≈ 16.9 µM) throughout.
As for `CCNC(=O)Nc1nc2cc(-c3cnc(C(C)(C)O)s3)cc(-c3ccccn3)c2s1` [Compound 48, 1-ethyl-3-[5-[2-(1-hydroxy-1-methyl-ethyl)thiazol-5-yl]-7-(2-pyridyl)-1,3-benzothiazol-2-yl]urea], the MIC in the assay with S. aureus (ATCC 29213) and in the assay with S. pyogenes (ATCC 51339) was not above 1 µg/mL in each case.
Take `CCNC(=O)Nc1nc2cc(-c3cnc(C(C)(C)O)cn3)cc(-c3ccccn3)c2s1` [Compound 49, 1-ethyl-3-[5-[5-(1-hydroxy-1-methyl-ethyl)pyrazin-2-yl]-7-(2-pyridyl)-1,3-benzothiazol-2-yl]urea]: the MIC in the assay on S. aureus (ATCC 29213) and with S. pyogenes (ATCC 51339) was not above 1 µg/mL throughout.
For the molecule `CCNC(=O)Nc1nc2cc(-c3cnc(C(C)(C)O)nc3)cc(-c3cc(N4CCC(C)(C(=O)O)CC4)ccn3)c2s1` [Compound 50, 1-[2-[2-(ethylcarbamoylamino)-5-[2-(1-hydroxy-1-methyl-ethyl)pyrimidin-5-yl]-1,3-benzothiazol-7-yl]-4-pyridyl]-4-methyl-piperidine-4-carboxylic acid], the MIC in the assay on S. aureus (ATCC 29213) and in the assay on S. pyogenes (ATCC 51339) was not above 1 µg/mL in each case.
As for `CCNC(=O)Nc1nc2cc(-c3cnc(C(C)(C)O)nc3)cc(-c3cccc(N4CCC(C)(C(=O)O)CC4)n3)c2s1` [Compound 51, 1-[6-[2-(ethylcarbamoylamino)-5-[2-(1-hydroxy-1-methyl-ethyl)pyrimidin-5-yl]-1,3-benzothiazol-7-yl]-2-pyridyl]-4-methyl-piperidine-4-carboxylic acid], the values for the MIC in the assay on S. aureus (ATCC 29213) and in the assay with S. pyogenes (ATCC 51339) were 4 µg/mL (≈ 6.95 µM) and not above 1 µg/mL, respectively.
The like results for `CCNC(=O)Nc1nc2cc(-c3cnc(C(C)(C)O)nc3)cc(-c3ccnc(N4CCC(C)(C(=O)O)CC4)n3)c2s1` [Compound 52, 1-[4-[2-(ethylcarbamoylamino)-5-[2-(1-hydroxy-1-methyl-ethyl)pyrimidin-5-yl]-1,3-benzothiazol-7-yl]pyrimidin-2-yl]-4-methyl-piperidine-4-carboxylic acid] were, in that order, 2 µg/mL (≈ 3.47 µM) and not above 1 µg/mL.
Take `CCNC(=O)Nc1nc2cc(-c3cnc(C(C)(C)O)nc3)cc(-c3cc(NC4CCC(C)(C(=O)O)CC4)ccn3)c2s1` (stereo not shown) [Compound 54, 4-[[2-[2-(ethylcarbamoylamino)-5-[2-(1-hydroxy-1-methyl-ethyl)pyrimidin-5-yl]-1,3-benzothiazol-7-yl]-4-pyridyl]amino]-1-methyl-cyclohexanecarboxylic acid]: the MIC with S. aureus (ATCC 29213) and in the assay with S. pyogenes (ATCC 51339) was not above 1 µg/mL in each case.
Regarding `CCCNC(=O)Nc1nc2cc(-c3cnc(C(C)(C)O)nc3)cc(-c3ccccn3)c2s1` [Compound 57, 1-[5-[2-(1-hydroxy-1-methyl-ethyl)pyrimidin-5-yl]-7-(2-pyridyl)-1,3-benzothiazol-2-yl]-3-propyl-urea], the MIC is not above 1 µg/mL with S. aureus (ATCC 29213) and 2 µg/mL (≈ 4.46 µM) with S. pyogenes (ATCC 51339).
In the case of `CCNC(=O)Nc1nc2cc(-c3cnc(C(O)C(C)(C)C)nc3)cc(-c3ccccn3)c2s1` (stereo not shown) [Compound 60, 1-ethyl-3-[5-[2-(1-hydroxy-2,2-dimethyl-propyl)pyrimidin-5-yl]-7-(2-pyridyl)-1,3-benzothiazol-2-yl]urea], the MIC in the assay with S. aureus (ATCC 29213) and with S. pyogenes (ATCC 51339) was not above 1 µg/mL each time.
Consider `CCNC(=O)Nc1nc2cc(-c3cnc(C(C)O)nc3)cc(-c3cc(CN4CC(O)C4)ccn3)c2s1` (stereo not shown) [Compound 65, 1-ethyl-3-[7-[4-[(3-hydroxyazetidin-1-yl)methyl]-2-pyridyl]-5-[2-(1-hydroxyethyl)pyrimidin-5-yl]-1,3-benzothiazol-2-yl]urea], for which the figures for the MIC with S. aureus (ATCC 29213) and in the assay on S. pyogenes (ATCC 51339) were 2 µg/mL (≈ 3.96 µM) and not above 1 µg/mL, respectively.
Regarding `CCNC(=O)Nc1nc2cc(-c3cnc(C(C)O)nc3)cc(-c3cc(CN4CC(C)(O)C4)ccn3)c2s1` (stereo not shown) [Compound 66, 1-ethyl-3-[5-[2-(1-hydroxyethyl)pyrimidin-5-yl]-7-[4-[(3-hydroxy-3-methyl-azetidin-1-yl)methyl]-2-pyridyl]-1,3-benzothiazol-2-yl]urea], the results for the MIC with S. aureus (ATCC 29213) and in the assay on S. pyogenes (ATCC 51339) were 2 µg/mL (≈ 3.85 µM) and not above 1 µg/mL, respectively.
The like results for `CCNC(=O)Nc1nc2cc(-c3cnc(C(C)(C)O)nc3)cc(-c3cc(CN4CCC(C)(O)C4)ccn3)c2s1` (stereo not shown) [Compound 67, 1-ethyl-3-[5-[2-(1-hydroxy-1-methyl-ethyl)pyrimidin-5-yl]-7-[4-[(3-hydroxy-3-methyl-pyrrolidin-1-yl)methyl]-2-pyridyl]-1,3-benzothiazol-2-yl]urea] were, in that order, not above 1 µg/mL and not above 1 µg/mL.
Turning to `CCNC(=O)Nc1nc2cc(-c3cnc(C(C)O)nc3)cc(-c3cc(CN4CCC[C@H]4C(=O)O)ccn3)c2s1` (stereo partly drawn) [Compound 72, (2S)-1-[[2-[2-(ethylcarbamoylamino)-5-[2-(1-hydroxyethyl)pyrimidin-5-yl]-1,3-benzothiazol-7-yl]-4-pyridyl]methyl]pyrrolidine-2-carboxylic acid], the MIC with S. aureus (ATCC 29213) and in the assay with S. pyogenes (ATCC 51339) was 8 µg/mL (≈ 14.6 µM) throughout.
Turning to `CCNC(=O)Nc1nc2cc(-c3cnc(C(C)O)nc3)cc(-c3cc(CN4CC[C@@H](O)C4)ccn3)c2s1` (stereo partly drawn) [Compound 77, 1-ethyl-3-[5-[2-(1-hydroxyethyl)pyrimidin-5-yl]-7-[4-[[(3R)-3-hydroxypyrrolidin-1-yl]methyl]-2-pyridyl]-1,3-benzothiazol-2-yl]urea], the MIC in the assay on S. aureus (ATCC 29213) and with S. pyogenes (ATCC 51339) was not above 1 µg/mL in each case.
For `CCNC(=O)Nc1nc2cc(-c3cnc(C(C)(C)O)nc3)cc(-c3nccc(NCCOC)n3)c2s1` [Compound 78, 1-ethyl-3-[5-[2-(1-hydroxy-1-methyl-ethyl)pyrimidin-5-yl]-7-[4-(2-methoxyethylamino)pyrimidin-2-yl]-1,3-benzothiazol-2-yl]urea], the MIC with S. aureus (ATCC 29213) and in the assay with S. pyogenes (ATCC 51339) was not above 1 µg/mL each time.
Take `CCNC(=O)Nc1nc2cc(-c3cnc(C(C)O)nc3)cc(-c3cc(CN4CCC(C)(O)C4)ccn3)c2s1` (stereo not shown) [Compound 84, 1-ethyl-3-[5-[2-(1-hydroxyethyl)pyrimidin-5-yl]-7-[4-[(3-hydroxy-3-methyl-pyrrolidin-1-yl)methyl]-2-pyridyl]-1,3-benzothiazol-2-yl]urea]: the MIC in the assay on S. aureus (ATCC 29213) and in the assay on S. pyogenes (ATCC 51339) was not above 1 µg/mL throughout.
For `CCNC(=O)Nc1nc2cc(-c3cnc(C(C)(C)O)nc3)cc(-c3nccc(NCCO)n3)c2s1` [Compound 85, 1-ethyl-3-[7-[4-(2-hydroxyethylamino)pyrimidin-2-yl]-5-[2-(1-hydroxy-1-methyl-ethyl)pyrimidin-5-yl]-1,3-benzothiazol-2-yl]urea], the MIC with S. aureus (ATCC 29213) was 2 µg/mL (≈ 4.04 µM); with S. pyogenes (ATCC 51339) it was not above 1 µg/mL.
`CCNC(=O)Nc1nc2cc(-c3cnc(C(C)(C)O)nc3)cc(-c3nccc(N4CC(C)(O)C4)n3)c2s1` [Compound 86, 1-ethyl-3-[7-[4-(3-hydroxy-3-methyl-azetidin-1-yl)pyrimidin-2-yl]-5-[2-(1-hydroxy-1-methyl-ethyl)pyrimidin-5-yl]-1,3-benzothiazol-2-yl]urea]: the MIC is 8 µg/mL (≈ 15.4 µM) in the assay with S. aureus (ATCC 29213) and not above 1 µg/mL with S. pyogenes (ATCC 51339).
As to `CCNC(=O)Nc1nc2cc(-c3cnc(C(C)(C)OC(=O)N4CCN(C)CC4)nc3)cc(-c3ccccn3)c2s1` [Compound 89, [1-[5-[2-(ethylcarbamoylamino)-7-(2-pyridyl)-1,3-benzothiazol-5-yl]pyrimidin-2-yl]-1-methyl-ethyl] 4-methylpiperazine-1-carboxylate], the MIC with S. aureus (ATCC 29213) came to 8 µg/mL (≈ 14.3 µM); in the assay with S. pyogenes (ATCC 51339), 2 µg/mL (≈ 3.57 µM).
Regarding `CCNC(=O)Nc1nc2cc(-c3cnc(C(C)O)nc3)cc(-c3cc(O)ccn3)c2s1` (stereo not shown) [Compound 90, 1-ethyl-3-[5-[2-(1-hydroxyethyl)pyrimidin-5-yl]-7-(4-hydroxy-2-pyridyl)-1,3-benzothiazol-2-yl]urea], the values for the MIC with S. aureus (ATCC 29213) and in the assay with S. pyogenes (ATCC 51339) were 16 µg/mL (≈ 36.7 µM) and 2 µg/mL (≈ 4.58 µM), respectively.
With `CCNC(=O)Nc1nc2cc(-c3cnc(C(C)(C)O)nc3)cc(-c3nccc(NCCN4CCOCC4)n3)c2s1` [Compound 91, 1-ethyl-3-[5-[2-(1-hydroxy-1-methyl-ethyl)pyrimidin-5-yl]-7-[4-(2-morpholinoethylamino)pyrimidin-2-yl]-1,3-benzothiazol-2-yl]urea], the results for the MIC in the assay on S. aureus (ATCC 29213) and in the assay with S. pyogenes (ATCC 51339) were 2 µg/mL (≈ 3.55 µM) and not above 1 µg/mL, respectively.
Take `CCNC(=O)Nc1nc2cc(-c3cnc(C(C)O)nc3)cc(-c3nccc(N4CC(OC)C4)n3)c2s1` (stereo not shown) [Compound 93, 1-ethyl-3-[5-[2-(1-hydroxyethyl)pyrimidin-5-yl]-7-[4-(3-methoxyazetidin-1-yl)pyrimidin-2-yl]-1,3-benzothiazol-2-yl]urea]: the MIC in the assay on S. aureus (ATCC 29213) and in the assay on S. pyogenes (ATCC 51339) was not above 1 µg/mL each time.
With `CCNC(=O)Nc1nc2cc(-c3cnc(C(C)O)nc3)cc(-c3nccc(N4CCOCC4)n3)c2s1` (stereo not shown) [Compound 94, 1-ethyl-3-[5-[2-(1-hydroxyethyl)pyrimidin-5-yl]-7-(4-morpholinopyrimidin-2-yl)-1,3-benzothiazol-2-yl]urea], the MIC in the assay on S. aureus (ATCC 29213) and in the assay on S. pyogenes (ATCC 51339) was not above 1 µg/mL each time.
On to `CCNC(=O)Nc1nc2cc(-c3cnc(C(C)(C)O)nc3)cc(-c3nccc(N4CCC(C)(C(=O)O)CC4)n3)c2s1` [Compound 97, 1-[2-[2-(ethylcarbamoylamino)-5-[2-(1-hydroxy-1-methyl-ethyl)pyrimidin-5-yl]-1,3-benzothiazol-7-yl]pyrimidin-4-yl]-4-methyl-piperidine-4-carboxylic acid], for which the MIC was 4 µg/mL (≈ 6.94 µM) with S. aureus (ATCC 29213) and not above 1 µg/mL in the assay on S. pyogenes (ATCC 51339).
